Each structure is given as a SMILES string.

Chain of bovine cardiac myosin (Q9BE39 whole entry): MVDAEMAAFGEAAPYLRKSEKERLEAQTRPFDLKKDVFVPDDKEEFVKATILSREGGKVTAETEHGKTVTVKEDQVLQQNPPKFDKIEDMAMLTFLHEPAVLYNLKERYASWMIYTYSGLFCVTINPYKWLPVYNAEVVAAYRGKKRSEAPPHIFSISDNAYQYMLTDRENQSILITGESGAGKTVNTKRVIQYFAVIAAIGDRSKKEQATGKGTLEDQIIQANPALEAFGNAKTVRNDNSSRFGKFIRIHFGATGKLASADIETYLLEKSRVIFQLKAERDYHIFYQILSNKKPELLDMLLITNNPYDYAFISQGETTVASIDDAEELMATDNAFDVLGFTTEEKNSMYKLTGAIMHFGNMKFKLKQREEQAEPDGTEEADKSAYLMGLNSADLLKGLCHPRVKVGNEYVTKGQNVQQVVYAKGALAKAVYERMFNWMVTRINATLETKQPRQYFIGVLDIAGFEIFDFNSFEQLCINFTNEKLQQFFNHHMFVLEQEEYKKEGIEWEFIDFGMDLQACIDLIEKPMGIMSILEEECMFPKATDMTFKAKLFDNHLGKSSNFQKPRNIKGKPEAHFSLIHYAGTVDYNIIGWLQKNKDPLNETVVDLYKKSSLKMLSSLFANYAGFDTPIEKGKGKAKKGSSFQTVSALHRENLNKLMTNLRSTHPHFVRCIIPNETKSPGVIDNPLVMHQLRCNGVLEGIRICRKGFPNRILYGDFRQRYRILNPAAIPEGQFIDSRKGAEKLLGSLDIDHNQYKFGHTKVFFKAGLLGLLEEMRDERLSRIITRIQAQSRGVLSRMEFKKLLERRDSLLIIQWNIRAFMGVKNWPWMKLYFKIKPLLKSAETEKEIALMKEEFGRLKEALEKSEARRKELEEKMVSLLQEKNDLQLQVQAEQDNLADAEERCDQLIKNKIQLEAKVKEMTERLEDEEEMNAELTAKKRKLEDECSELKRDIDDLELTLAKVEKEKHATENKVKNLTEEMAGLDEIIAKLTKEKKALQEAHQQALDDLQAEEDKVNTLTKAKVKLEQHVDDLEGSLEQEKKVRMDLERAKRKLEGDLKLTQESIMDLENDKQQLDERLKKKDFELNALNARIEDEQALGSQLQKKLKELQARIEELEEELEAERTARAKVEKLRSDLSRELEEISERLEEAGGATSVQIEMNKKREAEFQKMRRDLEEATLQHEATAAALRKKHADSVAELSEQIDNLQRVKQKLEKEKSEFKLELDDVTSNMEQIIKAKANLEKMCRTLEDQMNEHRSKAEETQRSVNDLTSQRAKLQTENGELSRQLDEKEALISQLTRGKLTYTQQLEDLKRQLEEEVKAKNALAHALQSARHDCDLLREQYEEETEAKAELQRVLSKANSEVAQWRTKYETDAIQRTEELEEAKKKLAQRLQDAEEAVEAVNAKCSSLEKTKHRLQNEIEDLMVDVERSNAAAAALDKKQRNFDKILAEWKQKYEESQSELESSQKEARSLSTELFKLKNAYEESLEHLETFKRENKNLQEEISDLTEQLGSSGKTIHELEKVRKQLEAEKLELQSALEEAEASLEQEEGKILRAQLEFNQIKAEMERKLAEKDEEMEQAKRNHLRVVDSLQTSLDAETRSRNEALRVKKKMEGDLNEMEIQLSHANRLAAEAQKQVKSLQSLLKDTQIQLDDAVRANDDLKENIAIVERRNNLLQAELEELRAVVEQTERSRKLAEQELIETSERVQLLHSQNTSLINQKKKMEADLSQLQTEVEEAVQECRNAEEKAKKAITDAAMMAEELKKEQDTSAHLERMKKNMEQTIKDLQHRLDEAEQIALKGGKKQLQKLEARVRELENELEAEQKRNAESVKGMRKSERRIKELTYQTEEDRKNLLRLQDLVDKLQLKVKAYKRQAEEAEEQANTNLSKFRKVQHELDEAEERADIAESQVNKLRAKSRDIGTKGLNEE
Chain of bovine cardiac myosin (P85100 whole entry partner): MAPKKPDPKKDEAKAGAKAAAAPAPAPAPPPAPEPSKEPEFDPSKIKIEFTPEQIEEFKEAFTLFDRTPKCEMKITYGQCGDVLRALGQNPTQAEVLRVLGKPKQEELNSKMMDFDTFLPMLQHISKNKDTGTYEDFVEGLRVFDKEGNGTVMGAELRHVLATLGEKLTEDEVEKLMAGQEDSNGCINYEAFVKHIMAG
Chain of bovine cardiac myosin (Q3SZE5 whole entry partner): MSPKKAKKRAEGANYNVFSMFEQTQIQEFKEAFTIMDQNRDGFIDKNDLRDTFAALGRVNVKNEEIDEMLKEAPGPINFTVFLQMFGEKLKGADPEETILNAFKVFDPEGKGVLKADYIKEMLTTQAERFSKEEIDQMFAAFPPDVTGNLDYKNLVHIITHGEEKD

The assay concerns the target bovine cardiac myosin (Bos taurus (Bovine), UniProt Q9BE39). The experiment in a line: Myosin inhibitory potency: PK/LDH-coupled ATPase assay on bovine skinned cardiac myofibrils. The class given is biochemical. To be noted: pCa=6.25, 50 μM ATP, 25° C., read-out: myosin inhibition activity IC50. As to the method: The average rates of ATPase inhibition, and the IC50 values are determined by Victor Nivo multimode plate reader (PerkinElmer, USA).
As to the assays background, a biochemical assay couples the ATPase activity of bovine cardiac myosin to an enzymatic coupling system consisting of pyruvate kinase and lactate dehydrogenase (PK/LDH) and monitoring the absorbance decrease of NADH (at 340 nm) as a function of time to measure the inhibitory ability of small molecule agents. In the assay, PK converts ADP (Adenosine diphosphate) to ATP (adenosine triphosphate) by converting PEP (phosphoenolpyruvate) to pyruvate. Pyruvate is then converted to lactate by LDH by converting NADH (nicotinamide adenine dinucleotide) to NAD (oxidized nicotinamide adenine dinucleotide).
In our experiments, bovine skinned cardiac myofibrils were isolated from the frozen bovine left ventricle as myosin's source in the ATPase assay. The calcium concentration that achieves a 50% (pCa50 or pCa=6.25) activation of the myofibril system was chosen as the final condition for assessing the activation activity according to the literature (DOI: 10.1074/jbc.M117.776815). Myofibrils ATPase activity was measured in a buffered solution containing 12 mM PIPES (piperazine-N, N′-bis(2-ethane sulfonic acid) and 2 mM magnesium chloride at pH 6.8 (PM12 buffer). Final assay conditions were 1 mg/mL of bovine cardiac myofibrils, 1:20 of stock PK/LDH (Sigma-Aldrich, Cat No. P0294-5X5ML), 50 μM ATP, 1 mM DTT (dithiothreitol), 0.75 mM NADH, 1.5 mM PEP at pCa50 (pCa=6.25). Compounds were dissolved in DMSO (dimethyl sulfoxide). Serial dilution of compounds was created such that the final desired concentration of compound would be achieved in a volume of 150 μL with a fixed DMSO concentration of 2% (v/v). 75 μL of a solution containing bovine cardiac myofibrils, PK/LDH, and calcium were added to a 96 well plate for a 7 point dose-response. In some circumstances, 10 point-response was used to repeat the ATPase assays on compounds of interest. Compounds were added to the myofibrils solution and incubated for 5 minutes. The enzymatic reaction was started with the addition of 75 μL of a solution containing ATP, PEP, NADH, compounds, and calcium. The ATPase activity was measured by reading absorbance at 340 nm in a PerkinElmer Victor Nivo plate reader at 25° C. in kinetic mode for 15 minutes using clear bottom plates. The slopes of the absorbance changes as a function of time for the first 10 minutes were normalized to slopes on the control wells containing all reagents, including DMSO, but without compounds. This normalized rate was then plotted as a function of small molecule concentration in GraphPad prism 9. The data were fitted to a four-parameter fit, and IC50 was calculated using Graphpad Prism 9.
A word on the IC50: it is the concentration at which inhibition is half-maximal. Consider `C[C@H](Nc1nc(=O)n(C2CCOCC2)c(=O)[nH]1)c1cccc(OC(F)(F)F)c1` [Example 202], for which the IC50 is 490 nM. `CC(Nc1nc(=O)n(C2CCOCC2)c(=O)[nH]1)C1CCC(F)(F)CC1` (centres unmarked) [Example 118]: the IC50 is 13000 nM.

As for `C[C@H](Nc1nc(=O)n(C2CCOCC2)c(=O)[nH]1)c1c(F)cccc1Cl` [Example 13], the IC50 was determined as 1300 nM. With `Cc1cccc([C@H](C)Nc2nc(=O)n([C@H]3CCOC[C@H]3F)c(=O)[nH]2)c1` [Example 316], the IC50 worked out at 1230 nM. The figure for `Cc1ccc(F)c([C@H](C)Nc2nc(=O)n([C@H](C3CC3)C(F)(F)F)c(=O)[nH]2)c1` [Example 303] is 560 nM; for `C[C@@H](Nc1nc(=O)n(C2CCOCC2)c(=O)[nH]1)c1ccc(C2CC2)cc1` [Example 334] it is 700 nM. As for `C[C@H](Nc1nc(=O)n([C@H](C)C(F)(F)F)c(=O)[nH]1)c1cccc(F)c1` [Example 178], the IC50 was 3320 nM. In the case of `CC(C)n1c(=O)nc(N[C@@H](C)c2cccc(C3CCOCC3)c2)[nH]c1=O` [Example 295], the IC50 was found to be 1360 nM. As for `Cc1ccc(F)c([C@H](C)Nc2nc(=O)n([C@@H](C)C(F)(F)F)c(=O)[nH]2)c1` [Example 311], the figure is 2360 nM; as for `Cc1cc([C@H](C)Nc2nc(=O)n(C(C)C)c(=O)[nH]2)ccc1F` [Example 305], 950 nM. As for `COC[C@H](Nc1nc(=O)n(C2CCOCC2)c(=O)[nH]1)c1ccccc1` [Example 304], the figure is 1780 nM; as for `C[C@H](Nc1nc(=O)n(C2CCOCC2)c(=O)[nH]1)c1cccc([C@@H](C)O)c1` [Example 286], 240 nM; as for `Cc1cccc([C@H](CO)Nc2nc(=O)n(C3CCOCC3)c(=O)[nH]2)c1` [Example 317], 2850 nM. As for `O=c1nc(N[C@H](c2cccc(Br)c2)C(F)F)[nH]c(=O)n1C1CCOCC1` [Example 270], the figure is 550 nM; as for `O=c1nc(N[C@H](c2cccc(C3CN(CC(F)(F)F)C3)c2)C(F)F)[nH]c(=O)n1C1CCOCC1` [Example 259], 450 nM. Regarding `Cc1cccc([C@H](C)Nc2nc(=O)n(C3CCn4nccc4C3)c(=O)[nH]2)c1` (some centres unmarked) [Example 92], the IC50 amounted to 7470 nM. The figure for `C[C@H](Nc1nc(=O)n([C@H]2CC[C@@H](F)CC2)c(=O)[nH]1)C1CCCCC1` [Example 86] is 1830 nM. For `CC(C)[C@@H](O)c1cccc([C@H](C)Nc2nc(=O)n(C3CCOCC3)c(=O)[nH]2)c1` [Example 287], the IC50 was 540 nM. For the compound `Cc1cccc([C@H](C)Nc2nc(=O)n(C3CCOC3)c(=O)[nH]2)c1` (some centres unmarked) [Example 95], the IC50 came out at 7320 nM.

Turning to `C[C@H](Nc1nc(=O)n(C2CCOCC2)c(=O)[nH]1)c1cccc(C(O)C2CC2)c1` (some centres unmarked) [Example 250], the IC50 was determined as 4030 nM. The figure for `C[C@H](Nc1nc(=O)n(C2CCOCC2)c(=O)[nH]1)c1cccc(F)c1` [Example 124] is 1740 nM; for `CC(C)(C#N)c1cccc([C@@H](Nc2nc(=O)n(C3CCOCC3)c(=O)[nH]2)C(F)F)c1` [Example 268] it is 1070 nM.

Consider `CCC(Nc1nc(=O)n(C2CCOCC2)c(=O)[nH]1)c1cccc(C)c1` (centres unmarked) [Example 292], for which the IC50 was 910 nM. On to `Cc1cccc([C@H](Nc2nc(=O)n(C3CCOCC3)c(=O)[nH]2)C(F)(F)F)c1` [Example 280], for which the IC50 was found to be 2430 nM.

On to `Cc1cccc([C@H](C)Nc2nc(=O)n(C3CCN(S(C)(=O)=O)CC3)c(=O)[nH]2)c1` [Example 244], for which the IC50 came to 1230 nM. On to `C[C@H](Nc1nc(=O)n(C2CCOCC2)c(=O)[nH]1)c1cccc(C2CCOCC2)c1` [Example 207], for which the IC50 worked out at 1320 nM. The figure for `C[C@H](Nc1nc(=O)n(C2CCOCC2)c(=O)[nH]1)c1ccc(S(C)(=O)=O)cc1` [Example 249] is 780 nM. As for `CC(Nc1nc(=O)n(C2CCOCC2)c(=O)[nH]1)c1cccc(F)c1` (centres unmarked) [Example 122], the IC50 worked out at 3480 nM. `Cc1cccc([C@H](C)Nc2nc(=O)n(C3CCN(CC(F)(F)F)CC3)c(=O)[nH]2)c1` [Example 39]: the IC50 turned out to be 6700 nM. As for `Cc1cccc([C@H](C)Nc2nc(=O)n(C3CCCOC3)c(=O)[nH]2)c1` (some centres unmarked) [Example 35], the figure is 2590 nM; as for `CO[C@@H]1COCC[C@H]1n1c(=O)nc(N[C@@H](C)c2cc(C)ccc2F)[nH]c1=O` [Example 283], 1090 nM.

Regarding `COC[C@H](Nc1nc(=O)n(C(C)C)c(=O)[nH]1)c1cccc(C)c1` [Example 285], the IC50 stood at 510 nM. As for `CC(Nc1nc(=O)n(C2CCOCC2)c(=O)[nH]1)c1cccc(C2CC2)c1` (centres unmarked) [Example 136], the figure is 4980 nM; as for `CC(n1c(=O)nc(N[C@@H](C)C2CCCCC2)[nH]c1=O)C(F)(F)F` (some centres unmarked) [Example 52], 6140 nM.

With `O=c1nc(NCCC2CCCCC2)[nH]c(=O)n1C1CCOCC1` [Example 114], the IC50 was determined as 14200 nM. The figure for `C[C@H](Nc1nc(=O)n(C2(C(F)(F)F)CC2)c(=O)[nH]1)C1CCCCC1` [Example 54] is 4520 nM; for `C[C@H](Nc1nc(=O)n([C@@H]2CCOC[C@@H]2F)c(=O)[nH]1)c1ccc(Cl)c(Cl)c1` [Example 320] it is 1020 nM; for `CC(O)c1cccc([C@@H](Nc2nc(=O)n(C3CCOCC3)c(=O)[nH]2)C(F)F)c1` (some centres unmarked) [Example 266] it is 1980 nM.

Consider `CC(C)n1c(=O)nc(N[C@@H](C)c2cccc(C3CCNCC3)c2)[nH]c1=O` [Example 293], for which the IC50 was 2810 nM. For `CC(=O)N1CCN(c2cccc([C@H](C)Nc3nc(=O)n(C4CCOCC4)c(=O)[nH]3)c2)CC1` [Example 213], the IC50 came out at 7790 nM. The figure for `C[C@@H](Nc1nc(=O)n(C2CCOCC2)c(=O)[nH]1)c1ccc(C(F)(F)F)cc1` [Example 333] is 1030 nM.

As to `C[C@H](Nc1nc(=O)n(C2CCOCC2)c(=O)[nH]1)c1ccc2c(c1)OC(F)(F)O2` [Example 298], the concentration for half-maximal inhibition (IC50) worked out at 880 nM.

For `C[C@H](Nc1nc(=O)n(C2CCOCC2)c(=O)[nH]1)C1CCCCC1` [Example 2], the IC50 was 2450 nM. Consider `CC(Nc1nc(=O)n(C(C)C)c(=O)[nH]1)C1CCC(F)(F)CC1` (centres unmarked) [Example 66], for which the IC50 stood at 10200 nM. On to `COc1cc([C@H](C)Nc2nc(=O)n(C3CCOCC3)c(=O)[nH]2)ccc1F` [Example 171], for which the IC50 is 910 nM. As for `C[C@H](Nc1nc(=O)n([C@H]2CC[C@H](F)CC2)c(=O)[nH]1)C1CCCCC1` [Example 87], the figure is 450 nM; as for `Cc1n[nH]cc1-c1cccc([C@H](C)Nc2nc(=O)n(C3CCOCC3)c(=O)[nH]2)c1` [Example 230], 5710 nM. As for `CC(C)Oc1ccc([C@H](C)Nc2nc(=O)n(C3CCOCC3)c(=O)[nH]2)cc1` [Example 43], the figure is 1080 nM; as for `CC(Nc1nc(=O)n(C2CCOCC2)c(=O)[nH]1)c1ccc2c(c1)OC(F)(F)O2` (centres unmarked) [Example 148], 1140 nM; as for `C[C@H](Nc1nc(=O)n(C2CCCCC2)c(=O)[nH]1)C1CCCCC1` [Example 60], 7410 nM.

In the case of `C[C@H](Nc1nc(=O)n([C@@H](C)C(F)(F)F)c(=O)[nH]1)c1ccc(OC(F)(F)F)cc1` [Example 175], the 50% inhibitory concentration (IC50) was found to be 2760 nM. `CC(Nc1nc(=O)n(C2CCOCC2)c(=O)[nH]1)c1cccc(-n2cccn2)c1` (centres unmarked) [Example 217]: the IC50 was found to be 3660 nM. As to `C[C@H](Nc1nc(=O)n(C2CCOCC2)c(=O)[nH]1)c1ccc(F)c(F)c1` [Example 164], the IC50 was determined as 1360 nM.

For `C[C@H](Nc1nc(=O)n([C@H]2CC[C@@H](O)CC2)c(=O)[nH]1)C1CCCCC1` [Example 237], the IC50 was 4780 nM. As for `C[C@H](Nc1nc(=O)n(C2CCOCC2)c(=O)[nH]1)c1cccc(-c2ccccc2)c1` [Example 220], the figure is 1320 nM; as for `CC(Nc1nc(=O)n(C2CCOCC2)c(=O)[nH]1)C1CC2(CCC2)C1` (centres unmarked) [Example 110], 9000 nM. The figure for `Cc1cccc([C@H](C)Nc2nc(=O)n(C3CCN(C(C)C)CC3)c(=O)[nH]2)c1` [Example 37] is 1290 nM; for `Cc1cccc([C@H](C)Nc2nc(=O)n(C3CCOCC3(C)C)c(=O)[nH]2)c1` (some centres unmarked) [Example 99] it is 9350 nM. The figure for `C[C@H](Nc1nc(=O)n(C2CCOCC2)c(=O)[nH]1)c1cccc(C2=CCOCC2)c1` [Example 208] is 1600 nM.
